Each structure is given as a SMILES string. Numbers after ± are expanded uncertainties.

The conditions of series [1]: 101.3 kPa, Liquid; for viscosity: Capillary tube (Ostwald / Ubbelohde) method.
The nature of series [2]: xn = mol fraction of the nth substance listed. To be noted: 101.3 kPa, Liquid, x1 = 1; for viscosity: Capillary tube (Ostwald / Ubbelohde) method.

The viscosity is the internal friction of a fluid under shear. The speed of sound is the propagation velocity of pressure waves in the medium. `CCCCN` [1-butanamine]: the viscosity was 0.525 ± 0.005 mPa·s in series [1] (293.15 K), 0.496 ± 0.005 mPa·s in series [1] (298.15 K) and 0.467 ± 0.005 mPa·s in series [1] (303.15 K). The speed of sound in series [1] (298.15 K) came out at 1251.6 ± 1.1 m/s.

On to `COCCO` [2-methoxyethan-1-ol], for which the values for the viscosity in series [1] (293.15 K), in series [1] (298.15 K) and in series [1] (303.15 K) were 1.708 ± 0.013 mPa·s, 1.544 ± 0.012 mPa·s and 1.404 ± 0.011 mPa·s, respectively. Besides, in series [1] (298.15 K), the speed of sound was found to be 1344.5 ± 1.1 m/s.

Take `COCCO` [2-methoxyethan-1-ol] + CCCCN: the viscosity was found to be 1.708 ± 0.013 mPa·s in series [2] (293.15 K), 1.544 ± 0.012 mPa·s in series [2] (298.15 K) and 1.404 ± 0.011 mPa·s in series [2] (303.15 K). Moreover, the speed of sound in series [2] (298.15 K) stood at 1344.5 ± 1.1 m/s.

For the origin of these results see the NIST ThermoML archive (doi:10.1021/je030127e).
